Eleven compounds from patent US11986471B2, “Compounds and methods of use” (Tango Therapeutics, Inc., priority 2018, dated 2024) can be followed below.

One test deals with HAP1 MTAP-deleted. Nature of the test: SDMA in-cell western assay, HAP1 MTAP-deleted cell line. The format is cell-based. As to conditions: for IC50: Homo sapiens, HAP1 MTAP-deleted cell line; for MTAP Intact/Deleted Ratio: IC50 ratio HAP1 MTAP-intact / HAP1 MTAP-deleted. An outline of the steps:
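Symmetric dimethylarginine (SDMA) levels were measured by in-cell western in MTAP-null HAP1 cells, one half of an MTAP-isogenic pair whose partner line expresses endogenous MTAP. Compound potency is reported as IC50.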

For test [1], the target named is T1, PRMT5 (Homo sapiens, UniProt O14744).
T1 construct: purchased Viva (custom protein)
T1 sequence (O14744 whole entry): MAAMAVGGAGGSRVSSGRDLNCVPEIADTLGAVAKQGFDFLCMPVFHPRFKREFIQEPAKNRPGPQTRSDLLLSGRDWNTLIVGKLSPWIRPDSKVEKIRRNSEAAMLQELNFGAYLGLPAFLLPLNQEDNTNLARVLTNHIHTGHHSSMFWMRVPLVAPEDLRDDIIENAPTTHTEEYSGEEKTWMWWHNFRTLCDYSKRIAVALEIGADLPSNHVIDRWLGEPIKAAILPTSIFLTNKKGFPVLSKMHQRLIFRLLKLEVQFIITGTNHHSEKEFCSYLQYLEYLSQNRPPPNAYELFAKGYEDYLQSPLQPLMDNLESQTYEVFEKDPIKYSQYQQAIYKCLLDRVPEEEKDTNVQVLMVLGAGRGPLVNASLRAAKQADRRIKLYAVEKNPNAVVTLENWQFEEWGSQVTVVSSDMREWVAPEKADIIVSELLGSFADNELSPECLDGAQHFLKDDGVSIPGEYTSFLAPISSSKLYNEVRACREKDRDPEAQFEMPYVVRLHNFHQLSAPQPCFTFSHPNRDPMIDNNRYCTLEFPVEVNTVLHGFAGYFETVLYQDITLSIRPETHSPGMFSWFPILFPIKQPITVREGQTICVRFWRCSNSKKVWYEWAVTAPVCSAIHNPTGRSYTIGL
T1 sequence (Q9BQA1 whole entry partner): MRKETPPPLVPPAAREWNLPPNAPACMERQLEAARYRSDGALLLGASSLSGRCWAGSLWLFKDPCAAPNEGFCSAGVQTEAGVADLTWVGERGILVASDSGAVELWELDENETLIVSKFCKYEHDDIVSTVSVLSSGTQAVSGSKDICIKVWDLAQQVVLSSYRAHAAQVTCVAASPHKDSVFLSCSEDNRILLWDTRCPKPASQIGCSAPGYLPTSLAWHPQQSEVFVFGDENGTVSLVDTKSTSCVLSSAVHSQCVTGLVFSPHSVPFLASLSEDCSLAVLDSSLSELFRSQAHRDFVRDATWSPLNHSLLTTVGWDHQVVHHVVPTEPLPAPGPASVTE
Nature of the test: PRMT5 IC50 assay in the presence of SAM as cofactor. It is filed as biochemical. The method in brief:
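For the SAM-containing format, dividing IC50 by 1.5 yields Ki; for the MTA-containing format the divisor is 13.5. A third format without cofactor gives IC50 alone.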

The target in test [2] is T1, PRMT5. The test is described as follows: PRMT5 IC50 assay with no cofactor. The format is biochemical. The method in brief: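 Three cofactor conditions are run: SAM-bound, MTA-bound and cofactor-free enzyme. IC50 is read from each; for the SAM and MTA arms it is divided by 1.5 and 13.5 respectively to give Ki.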
A further test has as its system HAP1 MTAP-intact. The test is described as follows: SDMA in-cell western assay, HAP1 MTAP-intact cell line. It is filed as cell-based. The note with it: Homo sapiens. The method in brief:
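Symmetric dimethylarginine (SDMA) levels were measured by in-cell western in an isogenic HAP1 pair, one expressing endogenous MTAP and one MTAP-null, and IC50 values were derived for each line. Compounds whose IC50 ratio between the lines is 3-fold or more are classed as MTAP-selective.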

Test [3] has as its target T1, PRMT5. Nature of the test: PRMT5 IC50 assay in the presence of MTA as cofactor. It is filed as biochemical. As to conditions: for IC50: PRMT5, MTA as cofactor. The method in brief: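 Each compound is tested on PRMT5 in the presence of SAM, of MTA, and without any cofactor. Ki values are then back-calculated using fixed factors of 1.5 (SAM) and 13.5 (MTA), and the two Ki values are compared as a ratio.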

[4] abbreviates: ratio between Ki in the presence of SAM and Ki in the presence of MTA.
Setting [5] is: ratio between the Ki in the presence of SAM and the Ki in the presence of MTA.

As for `O=C(NC[C@H](O)CN1CCc2c(Cl)c(OCc3cnco3)cc(F)c2C1)c1ccnc(NC2CCC2)c1` [Compound 279, N-[(2S)-3-[5-chloro-8-fluoro-6-(oxazol-5-ylmethoxy)-3,4-dihydro-1H-isoquinolin-2-yl]-2-hydroxy-propyl]-2-(cyclobutylamino)pyridine-4-carboxamide], the IC50 (as a rule, the concentration needed to halve the response being measured) in the test with HAP1 MTAP-deleted was 1000 to 10000 nM; on PRMT5 [1], 50 to 500 nM; on PRMT5 [2] (read-out: No Co-factor IC50), at least 5000 nM; in the test with HAP1 MTAP-intact, at least 10000 nM; on PRMT5 [3] it was 50 to 500 nM. Also, the “MTAP Intact/Deleted Ratio” value in the test with HAP1 MTAP-deleted was “C* (an IC50 ratio of less than 3 fold between the IC50 in the HAP1 MTAP-intact cell line and the HAP1 MTAP-deleted cell line)”. Besides, the “SAM/MTA Ratio” value at PRMT5 [3] (setting [4]) was “A (a Ki ratio greater than or equal to 10 fold between the Ki in the presence of SAM and the Ki in the presence of MTA)”.
Turning to `COc1cc(C(=O)NC[C@H](O)CN2CCc3c(ccc(OCc4cnco4)c3Cl)C2)cc(NC2CCC2)n1` [Compound 302, (S)—N-(3-(5-chloro-6-(oxazol-5-ylmethoxy)-3N-dihydroisoquinolin-2(1H)-yl)-2-hydroxypropyl)-2-(cyclobutylamino)-6-methoxyisonicotinamide], the IC50 was at least 10000 nM in the test with HAP1 MTAP-deleted; 500 to 5000 nM at PRMT5 [1]; at least 5000 nM at PRMT5 [2] (read-out: No Co-factor IC50); at least 10000 nM in the test with HAP1 MTAP-intact; 50 to 500 nM on PRMT5 [3]. For the same compound, the “MTAP Intact/Deleted Ratio” value with HAP1 MTAP-deleted was “C* (an IC50 ratio of less than 3 fold between the IC50 in the HAP1 MTAP-intact cell line and the HAP1 MTAP-deleted cell line)”. Besides, the “SAM/MTA Ratio” value on PRMT5 [3] (setting [4]) was “A (a Ki ratio greater than or equal to 10 fold between the Ki in the presence of SAM and the Ki in the presence of MTA)”.
As for `O=C(NC[C@H](O)CN1CCc2cc(OCc3c[nH]nn3)ccc2C1)c1ccnc(NC2CCC2)c1` [Compound 207, (S)—N-(3-(6-((1H-1,2,3-triazol-4-yl)methoxy)-3,4-dihydroisoquinolin-2(1H)-yl)-2-hydroxypropyl)-2-(cyclobutylamino)isonicotinamide], the IC50 in the test on HAP1 MTAP-deleted is below 1000 nM; at PRMT5 [1], 500 to 5000 nM; at PRMT5 [2] (read-out: No Co-factor IC50) it was at least 5000 nM; with HAP1 MTAP-intact, below 1000 nM; at PRMT5 [3], 500 to 5000 nM. Besides, the “MTAP Intact/Deleted Ratio” value with HAP1 MTAP-deleted was “C* (an IC50 ratio of less than 3 fold between the IC50 in the HAP1 MTAP-intact cell line and the HAP1 MTAP-deleted cell line)”. At PRMT5 [3] (setting [4]), the “SAM/MTA Ratio” value was “A (a Ki ratio greater than or equal to 10 fold between the Ki in the presence of SAM and the Ki in the presence of MTA)”.
Regarding `O=C(NC[C@H](O)CN1CCc2c(ccc(OCc3cnco3)c2Cl)C1)c1ccnc(NC2CCC(F)(F)CC2)c1` [Compound 425, (S)—N-(3-(5-chloro-6-(oxazol-5-ylmethoxy)-3,4-dihydroisoquinolin-2(1H)-yl)-2-hydroxypropyl)-2-((4N-difluorocyclohexyl)amino)isonicotinamide], the IC50 was at least 10000 nM in the test on HAP1 MTAP-deleted; 50 to 500 nM on PRMT5 [1]; at least 5000 nM on PRMT5 [2] (read-out: No Co-factor IC50); at least 10000 nM in the test on HAP1 MTAP-intact; 50 to 500 nM on PRMT5 [3]. Also, in the test with HAP1 MTAP-deleted, the “MTAP Intact/Deleted Ratio” value is “C* (an IC50 ratio of less than 3 fold between the IC50 in the HAP1 MTAP-intact cell line and the HAP1 MTAP-deleted cell line)”. On PRMT5 [3] (setting [4]), the “SAM/MTA Ratio” value was “A (a Ki ratio greater than or equal to 10 fold between the Ki in the presence of SAM and the Ki in the presence of MTA)”.
Turning to `CCCN(C)c1nc(NC2COC2)cc(C(=O)NC[C@H](O)CN2CCc3cc(OCc4ocnc4C)ccc3C2)n1` [Compound 390, N-[(2S)-2-hydroxy-3-{6-[(4-methyl-1,3-oxazol-5-yl)methoxy]-1,2,3,4-tetrahydroisoquinolin-2-yl}propyl]-2-[methyl(propyl)amino]-6-[(oxetan-3-yl)amino]pyrimidine-4-carboxamide], the IC50 in the test with HAP1 MTAP-deleted is below 1000 nM; on PRMT5 [1], 50 to 500 nM; on PRMT5 [2] (read-out: No Co-factor IC50) it was 500 to 5000 nM; in the test with HAP1 MTAP-intact, below 1000 nM; on PRMT5 [3], 50 to 500 nM. Also, the “MTAP Intact/Deleted Ratio” value with HAP1 MTAP-deleted is “C* (an IC50 ratio of less than 3 fold between the IC50 in the HAP1 MTAP-intact cell line and the HAP1 MTAP-deleted cell line)”. Besides, the “SAM/MTA Ratio” value at PRMT5 [3] (setting [4]) was “A (a Ki ratio greater than or equal to 10 fold between the Ki in the presence of SAM and the Ki in the presence of MTA)”.
Turning to `CC(=O)N1CCN(c2nc(NC3COC3)cc(C(=O)NC[C@H](O)CN3CCc4c(ccc(OCc5cnco5)c4Cl)C3)n2)CC1` [Compound 300, (S)-2-(4-acetylpiperazin-1-yl)-N-(3-(5-chloro-6-(oxazol-5-ylmethoxy)-3,4-dihydroisoquinolin-2(1H)-yl)-2-hydroxypropyl)-6-(oxetan-3-ylamino)pyrimidine-4-carboxamide], the IC50 in the test with HAP1 MTAP-deleted is at least 10000 nM; at PRMT5 [1] it was 50 to 500 nM; on PRMT5 [2] (read-out: No Co-factor IC50), 500 to 5000 nM; in the test with HAP1 MTAP-intact, at least 10000 nM; at PRMT5 [3], 50 to 500 nM. Besides, the “MTAP Intact/Deleted Ratio” value in the test with HAP1 MTAP-deleted is “C* (an IC50 ratio of less than 3 fold between the IC50 in the HAP1 MTAP-intact cell line and the HAP1 MTAP-deleted cell line)”. At PRMT5 [3] (setting [4]), the “SAM/MTA Ratio” value is “A (a Ki ratio greater than or equal to 10 fold between the Ki in the presence of SAM and the Ki in the presence of MTA)”.
Regarding `Cc1ncoc1COc1ccc2c(c1)CCN(C[C@@H](O)CNC(=O)c1ccnc(NC3CCN(C(=O)C4CC4)CC3)c1)C2` [Compound 624, (S)-2-((1-(cyclopropanecarbonyl)piperidin-4-yl)amino)-N-(2-hydroxy-3-(6-((4-methyloxazol-5-yl)methoxy)-3,4-dihydroisoquinolin-2(1H)-yl)propyl)isonicotinamide], the IC50 is below 1000 nM in the test on HAP1 MTAP-deleted; 50 to 500 nM at PRMT5 [1]; 500 to 5000 nM on PRMT5 [2] (read-out: No Co-factor IC50); 1000 to 10000 nM in the test with HAP1 MTAP-intact; below 50 nM on PRMT5 [3]. Moreover, the “MTAP Intact/Deleted Ratio” value in the test with HAP1 MTAP-deleted was “A* (an IC50 ratio greater than or equal to 10 fold between the IC50 in the HAP1 MTAP-intact cell line and the HAP1 MTAP-deleted cell line)”. For the same compound, on PRMT5 [3] (setting [4]), the “SAM/MTA Ratio” value is “A (a Ki ratio greater than or equal to 10 fold between the Ki in the presence of SAM and the Ki in the presence of MTA)”.
In the case of `CCCC(=O)N1CCC(Nc2cc(C(=O)NC[C@H](O)CN3CCc4c(ccc(OCc5cnco5)c4C)C3)ccn2)CC1` [Compound 470, (S)-2-((1-butyrylpiperidin-4-yl)amino)-N-(2-hydroxy-3-(5-methyl-6-(oxazol-5-ylmethoxy)-3,4-dihydroisoquinolin-2(1H)-yl)propyl)isonicotinamide], the IC50 with HAP1 MTAP-deleted is below 1000 nM; on PRMT5 [1], 50 to 500 nM; against PRMT5 [2] it was 500 to 5000 nM; in the test on HAP1 MTAP-intact, at least 10000 nM; on PRMT5 [3] it was 50 to 500 nM. Besides, the “MTAP Intact/Deleted Ratio” value with HAP1 MTAP-deleted was “A* (an IC50 ratio greater than or equal to 10 fold between the IC50 in the HAP1 MTAP-intact cell line and the HAP1 MTAP-deleted cell line)”. Besides, the “SAM/MTA Ratio” value at PRMT5 [3] (setting [5]) is “A (a Ki ratio greater than or equal to 10 fold between the Ki in the presence of SAM and the Ki in the presence of MTA)”.
For `COCCN(C)c1cc(C(=O)NC[C@H](O)CN2CCc3cc(OCc4ocnc4C)ccc3C2)cc(NC2CCN(C(C)=O)CC2)n1` [Compound 582], the IC50 with HAP1 MTAP-deleted is below 1000 nM; at PRMT5 [1], 50 to 500 nM; against PRMT5 [2] it was 500 to 5000 nM; with HAP1 MTAP-intact, 1000 to 10000 nM; at PRMT5 [3], 50 to 500 nM. Further, the “MTAP Intact/Deleted Ratio” value with HAP1 MTAP-deleted is “A* (an IC50 ratio greater than or equal to 10 fold between the IC50 in the HAP1 MTAP-intact cell line and the HAP1 MTAP-deleted cell line)”. Also, at PRMT5 [3] (setting [5]), the “SAM/MTA Ratio” value is “A (a Ki ratio greater than or equal to 10 fold between the Ki in the presence of SAM and the Ki in the presence of MTA)”.
For `CCC(=O)N1CC(Nc2cc(C(=O)NC[C@H](O)CN3CCc4cc(OCc5cnco5)ccc4C3)ccn2)C1` [Compound 469, N-[(2S)-2-hydroxy-3-[6-(oxazol-5-ylmethoxy)-3,4-dihydro-1H-isoquinolin-2-yl]propyl]-2-[(1-propanoylazetidin-3-yl)amino]pyridine-4-carboxamide], the IC50 in the test on HAP1 MTAP-deleted lay within 1000 to 10000 nM; at PRMT5 [1] it was 50 to 500 nM; against PRMT5 [2], 500 to 5000 nM; in the test on HAP1 MTAP-intact, 1000 to 10000 nM; on PRMT5 [3], 50 to 500 nM. Besides, the “MTAP Intact/Deleted Ratio” value in the test on HAP1 MTAP-deleted is “C* (an IC50 ratio of less than 3 fold between the IC50 in the HAP1 MTAP-intact cell line and the HAP1 MTAP-deleted cell line)”. For the same compound, the “SAM/MTA Ratio” value on PRMT5 [3] (setting [5]) is “A (a Ki ratio greater than or equal to 10 fold between the Ki in the presence of SAM and the Ki in the presence of MTA)”.
Turning to `Cc1c(OCc2cnco2)ccc2c1CCN(C[C@@H](O)CNC(=O)c1cccc(NC3COC3)c1)C2` [Compound 424, N-[(2S)-2-hydroxy-3-{5-methyl-6-[(1,3-oxazol-5-yl)methoxy]-1,2,3,4-tetrahydroisoquinolin-2-yl}propyl]-3-[(oxetan-3-yl)amino]benzamide], the IC50 with HAP1 MTAP-deleted is at least 10000 nM; on PRMT5 [1], 500 to 5000 nM; at PRMT5 [2] (read-out: No Co-factor IC50), at least 5000 nM; with HAP1 MTAP-intact it was at least 10000 nM; at PRMT5 [3] it was 500 to 5000 nM. Also, the “MTAP Intact/Deleted Ratio” value with HAP1 MTAP-deleted was “C* (an IC50 ratio of less than 3 fold between the IC50 in the HAP1 MTAP-intact cell line and the HAP1 MTAP-deleted cell line)”. In addition, the “SAM/MTA Ratio” value at PRMT5 [3] (setting [4]) is “A (a Ki ratio greater than or equal to 10 fold between the Ki in the presence of SAM and the Ki in the presence of MTA)”.
